The test system of one series is male SA rats. As to the kind of experiment: Anticonvulsant activity, maximal electroshock (MES) model, suppression of hind limb tonic extension. It counts as in vivo. Conditions: Rattus norvegicus, 1 h.
Series [1] has as its target T1, partially purified pig heart adenosine kinase (Sus scrofa, UniProt A0A5G2R0F5).
T1 construct: partially purified pig heart adenosine kinase; from tissue; host or cells: pig heart
Kind of series: Adenosine kinase (AK) inhibition. It counts as biochemical. As for the experimental part:
Adenosine kinase activity was measured essentially as described by Yamada et al. Biochim. Biophys. Acta 660, 36-43 […] with a few minor modifications. Assay mixtures contained 50 mM TRIS-maleate buffer, pH 7.0, 0.1% BSA, 1 mM ATP 1 mM MgCl2, 0.5 μM [U-^14 C]adenosine (400-600 mCi/mmol) and varying duplicate concentrations of inhibitor. The reactions were initiated by addition of approximately 0.1 μU partially purified pig heart adenosine kinase, where one unit is defined as that amount of enzyme required to phosphorylate 1 μmol adenosine per minute. The reactions were incubated for 20 minutes at 37° C. The assay was quenched upon spotting 30 μL aliquots onto 2 cm^2 pieces of Whatman DE81 anion exchange paper. The paper squares were washed for 3 minutes in 6 L distilled/deionized water to remove the unreacted adenosine. […] The amount of ^14 C-AMP was quantified by scintillation counting.

Another series concerns female SA rats. Kind of series: Liver toxicity (serum liver enzymes and total bilirubin). The class given is in vivo, rat. Conditions: iv infusion 2 x 37.5 μmole/kg, 12 hours after second dose. As for the experimental part: Female SA rats (150-200 g) were anesthetized with halothane and cannulated via the internal jugular vein. The animals wee allowed to recover for 3 days. […] Twelve hours later, an additional 37.5 μmole/kg was infused over 20 minutes (total dose=75 μmole/kg). […] Liver enzymes (serum glutamic-oxaloacetic transaminase (SGOT), serum glutamic-pyruvic transaminase (SGPT), alkaline phosphatase) and total bilirubin in the serum samples were dermined by a commercial laboratory.

The mark [2] stands for this setting: ip, one hour before seizure testing, >5 or <5 = fewer or more than 50% inhibited in initial screen at 5 mg/kg ip.
The mark [3] stands for this setting: po, fasted, one hour before seizure testing, read-out: Anticonvulsant ED50 (MES), po.
[4] abbreviates: ip, one hour before seizure testing, >5 or <5 = fewer or more than 50% inhibited in initial screen at 5 mg/kg ip, read-out: Anticonvulsant ED50 (MES), ip.

pIC50: −log10 of the molar value. Structures can show the parent of a compound that is named as a salt. Where two headings read alike, the source gives them in different places.

T1 sequence (A0A5G2R0F5 1-362): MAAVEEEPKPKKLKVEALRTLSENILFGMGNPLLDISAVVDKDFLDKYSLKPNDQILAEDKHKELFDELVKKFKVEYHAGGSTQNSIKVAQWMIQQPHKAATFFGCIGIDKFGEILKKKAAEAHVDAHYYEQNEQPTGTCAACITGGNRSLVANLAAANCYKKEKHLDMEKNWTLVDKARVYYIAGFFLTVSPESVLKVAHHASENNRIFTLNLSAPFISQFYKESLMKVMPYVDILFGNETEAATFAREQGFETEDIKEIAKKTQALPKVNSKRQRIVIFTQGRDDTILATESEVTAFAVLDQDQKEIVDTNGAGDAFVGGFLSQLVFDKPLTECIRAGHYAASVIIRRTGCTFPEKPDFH

`COc1ccc(-c2nn([C@@H]3O[C@H](CN=[N+]=[N-])[C@@H](O)[C@H]3O)c3ncnc(Nc4ccc(C)cc4)c23)cc1` [compound 95]: in the series with male SA rats (setting [2]), the ED50 at 5 mg/kg is greater than 5 mg/kg.
As to `C[C@H]1O[C@@H](n2nc(-c3ccccc3)c3c(Nc4ccc(Cl)cc4)ncnc32)[C@H](O)[C@@H]1O` [compound 91], the pIC50 in series [1] (read-out: AK Inhibition (IC50), 0.5 μM [U-14C]adenosine, pH 7.0, 37° C., 20 minutes) was 7.96.
`C[C@H]1O[C@@H](n2cc(-c3ccccc3)c3c(Nc4cccc(F)c4)ncnc32)[C@H](O)[C@@H]1O` [compound 19] had a pIC50 in series [1] of 8.70. The 50% effective dose (ED50) at 5 mg/kg in the series with male SA rats (setting [2]) is 0.4 mg/kg. In the series on male SA rats (setting [3]), the ED50 was greater than 30 mg/kg.
`C[C@H]1O[C@@H](n2cc(-c3ccccc3)c3c(Nc4ccc(N)cc4)ncnc32)[C@H](O)[C@@H]1O` [compound 43] showed a pIC50 in series [1] of 8.52. In the series with male SA rats (setting [2]), this molecule came in with an ED50 at 5 mg/kg of less than 5 mg/kg.
The molecule `OC[C@H]1O[C@@H](n2nc(-c3ccccc3)c3c(Nc4ccccc4)ncnc32)[C@H](O)[C@@H]1O` [compound 88] gave a pIC50 in series [1] of 8.30. Further, the results for the ED50 in the series on male SA rats (setting [4]) and in the series on male SA rats (setting [3]) were 2.62 mg/kg and greater than 2.6 mg/kg, respectively.
`[N-]=[N+]=NC[C@H]1O[C@@H](n2nc(-c3ccccc3)c3c(Nc4ccc(Cl)cc4)ncnc32)[C@H](O)[C@@H]1O` [compound 92] had a pIC50 in series [1] of 7.77.
On to `C[C@H]1O[C@@H](n2nc(-c3ccccc3)c3c(Nc4ccccc4)ncnc32)[C@H](O)[C@@H]1O` [compound 86], for which, in series [1], the pIC50 was 8.35. In the series with male SA rats (setting [2]), this molecule returned an ED50 at 5 mg/kg of 12.3 mg/kg. The ED50 in the series on male SA rats (setting [3]) is greater than 20 mg/kg.
With `C[C@H]1O[C@@H](n2cc(-c3cccc(Cl)c3)c3c(Nc4ccccc4)ncnc32)[C@H](O)[C@@H]1O` [compound 15], the pIC50 in series [1] is 7.80. Further, in the series with male SA rats (setting [2]), the ED50 at 5 mg/kg is 2.5 mg/kg. In the series with male SA rats (po, read-out: Anticonvulsant ED50 (MES), po), the ED50 was greater than 20 mg/kg.
The molecule `COc1ccc(Nc2ncnc3c2c(-c2ccccc2)nn3[C@@H]2O[C@H](C)[C@@H](O)[C@H]2O)cc1` [compound 89] had a pIC50 in series [1] of 7.77. In the series with male SA rats (setting [2]), this molecule gave an ED50 at 5 mg/kg of 5 mg/kg.
On to `C[C@H]1O[C@@H](n2cc(-c3ccccc3)c3c(Nc4cccc(Cl)c4)ncnc32)[C@H](O)[C@@H]1O` [compound 17], for which, in series [1], the pIC50 is 7.77.
`Cc1ccc(-c2nn([C@@H]3O[C@H](CN=[N+]=[N-])[C@@H](O)[C@H]3O)c3ncnc(Nc4ccccc4)c23)cc1` [compound 93] had a pIC50 in series [1] of 7.70. Further, in the series on male SA rats (setting [2]), the ED50 at 5 mg/kg was greater than 5 mg/kg.
Regarding `CCc1ccc(Nc2ncnc3c2c(-c2ccccc2)cn3[C@@H]2O[C@H](C)[C@@H](O)[C@H]2O)cc1` [compound 29], the pIC50 in series [1] is 7.70. The ED50 at 5 mg/kg in the series with male SA rats (setting [2]) was greater than 5 mg/kg.
Taken in the same sequence, the figures for `C[C@H]1O[C@@H](n2cc(-c3ccccc3)c3c(Nc4ccc(F)c(F)c4)ncnc32)[C@H](O)[C@@H]1O` [compound 11] were 8.40 and 5 mg/kg.
As to `NC[C@H]1O[C@@H](n2nc(Br)c3c(N)ncnc32)[C@H](O)[C@@H]1O` [REF. B, 4amino-1-(5-amino-5-deoxy-1-D-ribofuranosyl)-3-bromopyrazolo[3,4d]pyrimidne HCL], in the series with female SA rats, the SGOT is 100 IU/L, the SGPT came to 41 IU/L and the “Total Bilirubin” value stood at 0.30 mg/dL.
In series [1], `COc1ccc(-c2nn([C@@H]3O[C@H](CN=[N+]=[N-])[C@@H](O)[C@H]3O)c3ncnc(Nc4ccccc4)c23)cc1` [compound 94] had a pIC50 of 8.52. This molecule also had a median effective dose (ED50) at 5 mg/kg in the series on male SA rats (setting [2]) greater than 5 mg/kg.
Turning to `C[C@H]1O[C@@H](n2c(Br)c(-c3ccccc3)c3c(Nc4ccc(F)cc4)ncnc32)[C@H](O)[C@@H]1O` [compound 41], the negative-log IC50 (pIC50) in series [1] was 7.38. This molecule returned a median effective dose (ED50) at 5 mg/kg in the series on male SA rats (setting [2]) greater than 5 mg/kg.
In series [1], `[N-]=[N+]=NC[C@H]1O[C@@H](n2nc(-c3ccccc3)c3c(Nc4ccccc4)ncnc32)[C@H](O)[C@@H]1O` [compound 87] showed a pIC50 of 8.35. The molecule further came in with an ED50 at 5 mg/kg in the series on male SA rats (setting [2]) of 2.31 mg/kg. In addition, the median effective dose (ED50) in the series with male SA rats (setting [3]) is greater than 2.3 mg/kg.
Consider `C[C@H]1O[C@@H](n2cc(I)c3c(N)ncnc32)[C@H](O)[C@@H]1O` [REF. A], for which, in the series on female SA rats, the SGPT came out at 76 IU/L and the “Total Bilirubin” value amounted to 0.76 mg/dL.
In the case of `C[C@H]1O[C@@H](n2cc(-c3ccccc3)c3c(Nc4cc(F)cc(F)c4)ncnc32)[C@H](O)[C@@H]1O` [compound 10], the pIC50 in series [1] was 9.00. Moreover, the ED50 in the series on male SA rats (setting [4]) turned out to be 5 mg/kg.
In turn, `Cc1ccc(-c2cn([C@@H]3O[C@H](C)[C@@H](O)[C@H]3O)c3ncnc(Nc4ccccc4)c23)cc1` [compound 16] gave a negative logarithm of the IC50 (pIC50) in series [1] of 8.05. Moreover, the ED50 at 5 mg/kg in the series with male SA rats (setting [2]) was 2.3 mg/kg. Further, in the series on male SA rats (setting [3]), the ED50 came out at 8.7 mg/kg.
In series [1], `COc1ccc(Nc2ncnc3c2c(-c2ccccc2)nn3[C@@H]2O[C@H](CN=[N+]=[N-])[C@@H](O)[C@H]2O)cc1` [compound 90] showed a pIC50 of 8.10. This molecule also yielded an ED50 at 5 mg/kg in the series with male SA rats (setting [2]) greater than 3.4 mg/kg.
As for `C[C@H]1O[C@@H](n2cc(-c3ccccc3)c3c(Nc4ccc(O)cc4)ncnc32)[C@H](O)[C@@H]1O` [compound 20], the pIC50 in series [1] is 7.49. The ED50 with male SA rats (setting [4]) was found to be 5.5 mg/kg; in the series on male SA rats (setting [3]), 40 mg/kg.
`C[C@H]1O[C@@H](n2cc(-c3ccccc3)c3c(NCc4ccccc4)ncnc32)[C@H](O)[C@@H]1O` [compound 38] gave a pIC50 in series [1] of 7.52. The ED50 in the series with male SA rats (setting [4]) was greater than 5 mg/kg.
Molecule `C[C@H]1O[C@@H](n2cc(-c3cccc([N+](=O)[O-])c3)c3c(Nc4ccc(F)cc4)ncnc32)[C@H](O)[C@@H]1O` [compound 30] had a pIC50 in series [1] of 7.55. For the same molecule, the ED50 at 5 mg/kg with male SA rats (setting [2]) is greater than 5 mg/kg.
`CC(=O)Nc1ccc(Nc2ncnc3c2c(-c2ccccc2)cn3[C@@H]2O[C@H](C)[C@@H](O)[C@H]2O)cc1` [compound 32] had a pIC50 in series [1] of 9.30. The same molecule yielded an ED50 at 5 mg/kg in the series with male SA rats (setting [2]) of 5 mg/kg. Moreover, the ED50 in the series on male SA rats (setting [3]) was greater than 5 mg/kg.
Consider `CSc1ccc(Nc2ncnc3c2c(-c2ccccc2)cn3[C@@H]2O[C@H](C)[C@@H](O)[C@H]2O)cc1` [compound 40], for which, in series [1], the pIC50 was 8.70. In the series with male SA rats (setting [2]), this molecule gave a median effective dose (ED50) at 5 mg/kg of 5 mg/kg. Besides, the ED50 in the series on male SA rats (setting [3]) was greater than 10 mg/kg.
For `Cc1cccc(Nc2ncnc3c2c(-c2ccccc2)cn3[C@@H]2O[C@H](C)[C@@H](O)[C@H]2O)c1` [compound 18] the same measures were 8.40, 3.8 mg/kg and greater than 40 mg/kg.
In the case of `COc1ccc(Nc2ncnc3c2c(-c2ccccc2)cn3[C@@H]2O[C@H](C)[C@@H](O)[C@H]2O)cc1` [compound 13], in series [1], the pIC50 was 8.22. The ED50 is 2 mg/kg with male SA rats (setting [4]) and greater than 10 mg/kg in the series on male SA rats (setting [3]).
In series [1], `[N-]=[N+]=NC[C@H]1O[C@@H](n2nc(-c3ccc(Cl)cc3)c3c(Nc4ccccc4)ncnc32)[C@H](O)[C@@H]1O` [compound 96] showed a pIC50 of 7.82. In addition, the ED50 at 5 mg/kg in the series on male SA rats (setting [2]) was greater than 5 mg/kg.
On to `[N-]=[N+]=NC[C@H]1O[C@@H](n2nc(-c3cccs3)c3c(Nc4ccccc4)ncnc32)[C@H](O)[C@@H]1O` [compound 97], for which, in series [1] (0.5 μM [U-14C]adenosine, pH 7.0, 37° C., 20 minutes, read-out: AK Inhibition (IC50)), the pIC50 was 8.00. Besides, the ED50 with male SA rats (setting [4]) was greater than 5 mg/kg.
Regarding `C[C@H]1O[C@@H](n2cc(-c3ccc(F)cc3)c3c(Nc4ccccc4)ncnc32)[C@H](O)[C@@H]1O` [compound 24], it took a dose of 2.5 mg/kg to reach the 50% effect level in the series with male SA rats (setting [2]) (ED50 at 5 mg/kg). Further, the ED50 in the series on male SA rats (setting [3]) came to 10 mg/kg.
`COc1ccc(-c2cn([C@@H]3O[C@H](C)[C@@H](O)[C@H]3O)c3ncnc(Nc4ccc(F)cc4)c23)cc1` [compound 25]: the pIC50 in series [1] was 8.00. The molecule also showed an ED50 at 5 mg/kg with male SA rats (setting [2]) of 3.1 mg/kg.

As usually defined, the ED50 is the dose at which the effect has come halfway, by size or by number of responders. As usually defined, the pIC50 is the IC50 on a negative log10 scale, so that one unit is a factor of ten.
